According to patent US9399639B2, “Substituted azaindole compounds, salts, pharmaceutical compositions thereof and methods of use” (Calitor Sciences, LLC, priority 2012, dated 2016):

How the values were obtained:
Type in all cases: in vitro ADME
[1] = Compound stability in rat liver microsomes; conditions: for CLint scaled at 1 μM: pH 7.4, in vivo CLint extrapolated; for half-life at 1 μM: pH 7.4, read-out: Rat T1/2
Description: (§1) Human or rat liver microsomes incubations were conducted in duplicate in polypropylene tubes. […] Compounds were dissolved in DMSO and diluted with PBS such that the final concentration of DMSO was 0.05%. The enzymatic reactions were commenced with the addition of protein after a 3 min preincubation and incubated in a water bath open to the air at 37° C. Reactions were terminated at various time points (0, 5, 10, 15, 30, 60 min) by adding equal volume of ice-cold acetonitrile. The samples were stored at −80° C. until LC/MS/MS assays.
(§2) The concentrations of compounds in the incubation mixtures of human (or rat) liver microsomes were determined by a LC/MS/MS method. The ranges of the linearity in the concentration range were determined for each tested compounds.
(§3) A parallel incubation was performed using denatured microsomes as the negative control, and reactions were terminated at various time points (for example, 0, 15, 60 min) after incubation at 37° C.
(§4) Dextromethorphan (70 μM) was selected as the positive control, and reactions were terminated at various time points (0, 5, 10, 15, 30, 60 min) after incubation at 37° C. Both positive and negative control samples were included in each assay to ensure the integrity of the microsomal incubation system.
(§5) Alternatively, the stability of some of the compounds disclosed herein in human (or rat) liver microsomes were also conducted in the following protocol. The incubations were conducted in duplicate in polypropylene tubes. […] Compounds were dissolved in DMSO and diluted with K-buffer such that the final concentration of DMSO was 0.2%. The enzymatic reactions were commenced with the addition of 15 μL of NADPH (final concentration: 2 mM) after 10 min preincubation and incubated in a 37° C. incubator. Reactions were terminated at various time points (0, 15, 30, 60 min) by adding 135 μL acetonitrile (contain IS). Protein is removed by centrifugation with 4,000 rpm, 10 min.
(§6) In the above protocol, ketanserin (1 μM) was selected as the positive control, and reactions were terminated at various time points (0, 15, 30, 60 min) after incubation at 37° C. The positive control sample was included in each assay to ensure the integrity of the microsomal incubation system.
(§7) The concentrations of compounds in liver microsome incubations were plotted as a percentage of the relevant zero time point control for each reaction. The in vivo CLint were extrapolated (ref: Naritomi et al., Prediction of human hepatic clearance from in vivo animal experiments and in vitro metabolic studies with liver microsomes from animals and humans, Drug Metab. Dispos., 2001, 29: 1316-1324.) […]

[2] = Compound stability in human liver microsomes; conditions: for CLint scaled at 1 μM: pH 7.4, in vivo CLint extrapolated; for half-life at 1 μM: pH 7.4, read-out: Human T1/2
Description: as §1, §2, §3, §4, §5, §6, §7

[3] = Stability in human plasma; conditions: for Human T1/2: 2 μM; for half-life at 2 μM: read-out: Human T1/2
Description: (§8) Similarly, selected compounds of the invention were also assessed for their stability in human and rat plasma, and the results are listed in Table 3.

Stability in rat plasma = conditions: read-out: Rat T1/2
Description: as §8

Row | Structure (SMILES) | CLint scaled at 1 μM [1] | half-life at 1 μM [1] | CLint scaled at 1 μM [2] | half-life at 1 μM [2] | Human T1/2 [3] | half-life at 2 μM (Stability in rat plasma) | Human T1/2 ([2]; 1 μM) | half-life at 2 μM [3]
1 | CCCS(=O)(=O)Nc1ccc(F)c(C(=O)c2cn(C(C)OC(=O)CC)c3ncc(-c4ccc(Cl)cc4)cc23)c1F (stereo not drawn) [Ex. 10, 1-(5-(4-chlorophenyl)-3-(2,6-difluoro-3-(propylsulfonamido)benzoyl)-1H-pyrrolo[2,3-b]pyridin-1-yl)ethyl propionate] | – | – | – | – | – | 55.8 min | – | 88.1 min
2 | CCCS(=O)(=O)Nc1ccc(F)c(C(=O)c2cn(C(C)OC(=O)C(C)C)c3ncc(-c4ccc(Cl)cc4)cc23)c1F (stereo not drawn) [Ex. 14, 1-(5-(4-chlorophenyl)-3-(2,6-difluoro-3-(propylsulfonamido)benzoyl)-1H-pyrrolo[2,3-b]pyridin-1-yl)ethyl isobutyrate] | – | – | 51.7 mL/min/kg | 33.6 min | – | – | – | 511 min
3 | CCCS(=O)(=O)Nc1ccc(F)c(C(=O)c2cn(COC(=O)C(N)C(C)C)c3ncc(-c4ccc(Cl)cc4)cc23)c1F.Cl (stereo not drawn) [Ex. 18, (5-(4-chlorophenyl)-3-(2,6-difluoro-3-(propylsulfonamido)benzoyl)-1H-pyrrolo[2,3-b]pyridin-1-yl)methyl 2-amino-3-methylbutanoate hydrochloride] | – | – | 5.52 mL/min/kg | 78.8 min | – | 9.61 min | – | 6.08 min
4 | CCCS(=O)(=O)Nc1ccc(F)c(C(=O)c2cn(COC(=O)[C@@H](N)C(C)CC)c3ncc(-c4ccc(Cl)cc4)cc23)c1F.Cl (stereo partly drawn) [Ex. 22, (2S)-(5-(4-chlorophenyl)-3-(2,6-difluoro-3-(propylsulfonamido)benzoyl)-1H-pyrrolo[2,3-b]pyridin-1-yl)methyl-2-amino-3-methylpentanoate hydrochloride] | 535 mL/min/kg | 4.6 min | 23.9 mL/min/kg | 72.8 min | – | 15.2 min | – | 6.81 min
5 | CCCS(=O)(=O)Nc1ccc(F)c(C(=O)c2cn(COC(=O)OCC)c3ncc(-c4ccc(Cl)cc4)cc23)c1F [Ex. 26, (5-(4-chlorophenyl)-3-(2,6-difluoro-3-(propylsulfonamido)benzoyl)-1H-pyrrolo[2,3-b]pyridin-1-yl)methyl ethyl carbonate] | – | – | – | – | – | – | – | 81.6 min
6 | CCCS(=O)(=O)Nc1ccc(F)c(C(=O)c2cn(COC(=O)OC(C)C)c3ncc(-c4ccc(Cl)cc4)cc23)c1F [Ex. 27, (5-(4-chlorophenyl)-3-(2,6-difluoro-3-(propylsulfonamido)benzoyl)-1H-pyrrolo[2,3-b]pyridin-1-yl)methyl isopropyl carbonate] | – | – | – | – | – | 55.9 min | – | 79.6 min
7 | CCCS(=O)(=O)Nc1ccc(F)c(C(=O)c2cn(C(C)OC(=O)OCC)c3ncc(-c4ccc(Cl)cc4)cc23)c1F (stereo not drawn) [Ex. 28, 1-(5-(4-chlorophenyl)-3-(2,6-difluoro-3-(propylsulfonamido)benzoyl)-1H-pyrrolo[2,3-b]pyridin-1-yl)ethyl ethyl carbonate] | – | – | – | – | – | 49.5 min | – | 57.9 min

Results, then the molecule that gave them:

Row | CLint scaled at 1 μM [1] | half-life at 1 μM [1] | CLint scaled at 1 μM [2] | half-life at 1 μM [2] | Human T1/2 [3] | half-life at 2 μM (Stability in rat plasma) | Human T1/2 ([2]; 1 μM) | half-life at 2 μM [3] | Structure (SMILES)
8 | 142 mL/min/kg | 17.5 min | 60.2 mL/min/kg | 28.9 min | – | – | – | – | CCCS(=O)(=O)N(C(=O)OCC)c1ccc(F)c(C(=O)c2c[nH]c3ncc(-c4ccc(Cl)cc4)cc23)c1F [Ex. 1, ethyl 3-(5-(4-chlorophenyl)-1H-pyrrolo[2,3-b]pyridine-3-carbonyl)-2,4-difluorophenyl(propylsulfonyl)carbamate]
9 | 193 mL/min/kg | 12.8 min | 29.2 mL/min/kg | 59.5 min | – | – | – | – | CCCS(=O)(=O)N(C(=O)c1ccccc1)c1ccc(F)c(C(=O)c2c[nH]c3ncc(-c4ccc(Cl)cc4)cc23)c1F [Ex. 2, N-(3-(5-(4-chlorophenyl)-1H-pyrrolo[2,3-b]pyridine-3-carbonyl)-2,4-difluorophenyl)-N-(propylsulfonyl)benzamide]
10 | 46.8 mL/min/kg | 53.1 min | – | – | ∞ | 68.8 min | ∞ | – | CCCS(=O)(=O)Nc1ccc(F)c(C(=O)c2cn(COC(=O)C(C)(C)C)c3ncc(-c4ccc(Cl)cc4)cc23)c1F [Ex. 7a, (5-(4-chlorophenyl)-3-(2,6-difluoro-3-(propylsulfonamido)benzoyl)-1H-pyrrolo[2,3-b]pyridin-1-yl)methyl pivalate]
11 | – | – | – | – | – | 28.6 min | – | 113 min | CCCS(=O)(=O)Nc1ccc(F)c(C(=O)c2cn(COC(=O)C(C)C)c3ncc(-c4ccc(Cl)cc4)cc23)c1F [Ex. 9, (5-(4-chlorophenyl)-3-(2,6-difluoro-3-(propylsulfonamido)benzoyl)-1H-pyrrolo[2,3-b]pyridin-1-yl)methyl isobutyrate]
12 | – | – | – | – | – | 49.8 min | – | 162 min | CCCS(=O)(=O)Nc1ccc(F)c(C(=O)c2cn(C(OC(=O)CC)C(C)C)c3ncc(-c4ccc(Cl)cc4)cc23)c1F (stereo not drawn) [Ex. 11, 1-(5-(4-chlorophenyl)-3-(2,6-difluoro-3-(propylsulfonamido)benzoyl)-1H-pyrrolo[2,3-b]pyridin-1-yl)-2-methylpropyl propionate]
13 | – | – | – | – | – | 18.6 min | – | 39.6 min | CCCS(=O)(=O)Nc1ccc(F)c(C(=O)c2cn(COC(=O)CC)c3ncc(-c4ccc(Cl)cc4)cc23)c1F [Ex. 15, (5-(4-chlorophenyl)-3-(2,6-difluoro-3-(propylsulfonamido)benzoyl)-1H-pyrrolo[2,3-b]pyridin-1-yl)methyl propionate]
14 | – | – | – | – | ∞ | 157 min | – | – | CCCS(=O)(=O)Nc1ccc(F)c(C(=O)c2cn(C(OC(=O)C(C)C)C(C)C)c3ncc(-c4ccc(Cl)cc4)cc23)c1F (stereo not drawn) [Ex. 16, 1-(5-(4-chlorophenyl)-3-(2,6-difluoro-3-(propylsulfonamido)benzoyl)-1H-pyrrolo[2,3-b]pyridin-1-yl)-2-methylpropyl isobutyrate]
15 | – | – | – | – | – | 5.9 min | – | 7.47 min | CCCS(=O)(=O)Nc1ccc(F)c(C(=O)c2cn(COC(=O)CN)c3ncc(-c4ccc(Cl)cc4)cc23)c1F.Cl [Ex. 19, (5-(4-chlorophenyl)-3-(2,6-difluoro-3-(propylsulfonamido)benzoyl)-1H-pyrrolo[2,3-b]pyridin-1-yl)methyl 2-aminoacetate hydrochloride]
16 | 429 mL/min/kg | 5.8 min | 15.4 mL/min/kg | 113 min | – | 3.42 min | – | 3.06 min | CCCS(=O)(=O)Nc1ccc(F)c(C(=O)c2cn(COC(=O)[C@@H](N)CC(C)C)c3ncc(-c4ccc(Cl)cc4)cc23)c1F.Cl [Ex. 23, (S)-(5-(4-chlorophenyl)-3-(2,6-difluoro-3-(propylsulfonamido)benzoyl)-1H-pyrrolo[2,3-b]pyridin-1-yl)methyl 2-amino-4-methylpentanoate hydrochloride]
17 | – | – | – | – | ∞ | 56.3 min | – | – | CCCS(=O)(=O)Nc1ccc(F)c(C(=O)c2cn(C(C)OC(=O)OC(C)C)c3ncc(-c4ccc(Cl)cc4)cc23)c1F (stereo not drawn) [Ex. 30, 1-(5-(4-chlorophenyl)-3-(2,6-difluoro-3-(propylsulfonamido)benzoyl)-1H-pyrrolo[2,3-b]pyridin-1-yl)ethyl isopropyl carbonate]
